Publication PMC4624765, “C-di-GMP Regulates Motile to Sessile Transition by Modulating MshA Pili Biogenesis and Near-Surface Motility Behavior in Vibrio cholerae” (PLoS Pathogens, 2015)
pKd: −log10 of the molar value.

Tests used:
MshE N-terminal domain = biological target: T1, MshE N-terminal domain (Vibrio cholerae, UniProt Q9KUV7); assay: fluorescence thermal shift (SYPRO Orange); assay type: binding; settings: 25 mM Tris-HCl pH 7.5, 100 mM NaCl, 0.2 mM MgCl2
T1 construct: gene VC_0405; N-terminal domain, residues 1-180, expressed in E. coli BL21
T1 sequence (Q9KUV7 1-180 limits assumed): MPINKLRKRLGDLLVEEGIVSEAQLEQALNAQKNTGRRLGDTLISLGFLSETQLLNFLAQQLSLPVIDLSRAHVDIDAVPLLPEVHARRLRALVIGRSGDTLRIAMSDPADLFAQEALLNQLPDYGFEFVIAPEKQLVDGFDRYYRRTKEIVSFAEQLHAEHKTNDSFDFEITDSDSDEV

MshE [1] = biological target: T2, MshE (Vibrio cholerae, UniProt Q9KUV7); assay: fluorescence thermal shift (SYPRO Orange); assay type: binding; parameters: gene VC_0405; full-length, expressed in E. coli BL21, purified on GST column with glutathione elution; settings: 25 mM Tris-HCl pH 7.5, 100 mM NaCl, 0.2 mM MgCl2
T2 sequence (Q9KUV7 1-575): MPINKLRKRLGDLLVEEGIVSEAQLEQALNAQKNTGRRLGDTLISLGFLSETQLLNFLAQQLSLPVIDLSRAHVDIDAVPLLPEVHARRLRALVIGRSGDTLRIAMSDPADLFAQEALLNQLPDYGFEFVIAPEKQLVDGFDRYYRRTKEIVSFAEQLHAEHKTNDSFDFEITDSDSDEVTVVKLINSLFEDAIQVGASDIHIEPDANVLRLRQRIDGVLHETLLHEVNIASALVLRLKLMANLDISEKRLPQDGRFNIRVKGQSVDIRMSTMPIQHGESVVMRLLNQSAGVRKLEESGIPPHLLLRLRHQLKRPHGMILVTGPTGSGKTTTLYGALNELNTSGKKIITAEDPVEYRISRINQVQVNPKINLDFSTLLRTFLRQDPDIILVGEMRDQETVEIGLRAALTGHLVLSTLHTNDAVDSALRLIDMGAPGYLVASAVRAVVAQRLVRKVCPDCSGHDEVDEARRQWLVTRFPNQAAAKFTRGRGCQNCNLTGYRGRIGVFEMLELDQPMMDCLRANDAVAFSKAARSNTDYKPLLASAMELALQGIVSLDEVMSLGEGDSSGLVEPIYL

MshE [2] = biological target: T2, MshE; assay: biochemical; parameters: gene VC_0405
VpsT = biological target: T3, VpsT (Vibrio cholerae, UniProt Q9KKZ8); assay: biochemical
T3 construct: gene VC_A0952

| SMILES | Tm with 2 mM ligand (MshE N-terminal domain) [°C] | Tm with 2 mM ligand (MshE [1]) [°C] | pKd (MshE [2]) | pKd (VpsT) |
| --- | --- | --- | --- | --- |
| Nc1nc2c(ncn2[C@@H]2O[C@@H]3COP(=O)(O)O[C@H]4[C@@H](O)[C@H](n5cnc6c(=O)[nH]c(N)nc65)O[C@@H]4COP(=O)(O)O[C@H]3[C@H]2O)c(=O)[nH]1 [c-di-GMP] | 70.18 ±0.55 | 42.77±0.70 | 5.06 | 5.00 |
| Nc1ncnc2c1ncn2[C@@H]1O[C@H](COP(=O)(O)OP(=O)(O)OP(=O)(O)O)[C@@H](O)[C@H]1O [ATP] | – | 40.15 ±1.02 | – | – |
